Test results published in paper PMC9026026 (ACS Omega, 2022).
Where “and” joins values, the source holds several entries; their conditions need not be identical. Equal entries are not always repeated. Where two headings read alike, the source gives them in different places.

Columns and labels:
[1] = type: in vivo, Wistar rats; details: for Cmax: mean ± SEM (n = 5)
[2] = cited from earlier work; for elevation of oral exposure of repaglinide upon coadministration: clinical
CYP2C8 [3] = details: read-out: IC50 for CYP2C8 inhibitory activity; mixed type of inhibition; cited from earlier work
CYP2C8 [4] = molecular target: T1, CYP2C8 (Homo sapiens, UniProt P10632); details: read-out: Ki for CYP2C8 inhibition in HLM; cited from earlier work
T1 sequence (P10632 1-490): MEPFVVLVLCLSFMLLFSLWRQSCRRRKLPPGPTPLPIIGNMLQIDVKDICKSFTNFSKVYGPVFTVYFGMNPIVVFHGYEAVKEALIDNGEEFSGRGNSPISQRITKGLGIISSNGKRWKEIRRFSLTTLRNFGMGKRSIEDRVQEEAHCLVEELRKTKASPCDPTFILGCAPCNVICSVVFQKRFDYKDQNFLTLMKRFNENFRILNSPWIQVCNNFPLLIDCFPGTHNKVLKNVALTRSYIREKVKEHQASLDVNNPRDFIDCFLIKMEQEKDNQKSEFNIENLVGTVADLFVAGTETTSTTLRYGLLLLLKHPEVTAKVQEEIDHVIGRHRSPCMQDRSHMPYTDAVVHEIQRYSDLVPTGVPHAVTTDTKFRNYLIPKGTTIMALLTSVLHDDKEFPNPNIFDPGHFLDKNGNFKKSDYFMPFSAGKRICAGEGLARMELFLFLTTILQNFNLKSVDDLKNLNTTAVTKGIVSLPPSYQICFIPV

[5] = cited from earlier work
[6] = system: amodiaquine metabolism in rat liver microsomes (RLM); type: in vitro ADME; details: RLM 0.5 mg/mL, amodiaquine 2 μM, myricetin 0, 10, 100 μM, 30 min
CYP3A4 = details: cited from earlier work; for Ki: read-out: Ki for CYP3A4
CYP2D6 = details: read-out: IC50 for CYP2D6; cited from earlier work
CYP2C8 [7] = molecular target: T1, CYP2C8; assay: biochemical
CYP2C8 [8] = molecular target: T1, CYP2C8
[9] = rat model; cited from earlier work
[10] = substrate: CCN(CC)Cc1cc(Nc2ccnc3cc(Cl)ccc23)ccc1O; assay: Kinetic parameters of CYP2C8-catalyzed amodiaquine-N-deethylation in HLM; type: in vitro ADME, human; details: other: HLM, N-desethylamodiaquine formation; pH 7.4; 37.0 °C
[11] = rats, amodiaquine 60 mg/kg oral alone (Group-I)
[12] = rats, myricetin 5 mg/kg i.v. followed by amodiaquine 60 mg/kg oral (Group-II)

CCNCc1cc(Nc2ccnc3cc(Cl)ccc23)ccc1O [N-desethylamodiaquine]
AUC0–t [1, 11]: 1313.30 ± 349.54 ng·h/mL | AUC0–∞ [1, 11]: 3362.65 ± 667.75 ng·h/mL | MRT [1, 11]: 18.70 ± 4.68 h | T1/2 [1, 11]: 11.65 ± 3.21 h | Tmax [1, 11]: 4.20 ± 0.80 h | Cmax [1, 11]: 370.40 ± 125.05 ng/mL | AUC0–t [1, 12]: 2061.57 ± 452.16 ng·h/mL | AUC0–∞ [1, 12]: 3980.79 ± 1273.24 ng·h/mL | MRT [1, 12]: 12.64 ± 4.42 h | T1/2 [1, 12]: 7.91 ± 3.00 h | Tmax [1, 12]: 3.60 ± 0.81 h

CCN(CC)Cc1cc(Nc2ccnc3cc(Cl)ccc23)ccc1O [amodiaquine]
AUC(0-t) ([1]; male, Wistar, rat, plasma, po, 60 mg/kg, AUC0–t, rats, amodiaquine 60 mg/kg oral alone (Group-I)): 3120 ± 414 ng·h/mL | Cmax ([1]; male, Wistar, rat, plasma, po, 60 mg/kg, Cmax, rats, amodiaquine 60 mg/kg oral alone (Group-I)): 1030 ± 247 ng/mL | half-life ([1]; male, Wistar, rat, plasma, po, 60 mg/kg, T1/2, rats, amodiaquine 60 mg/kg oral alone (Group-I)): 2.16 ± 0.3 h

COC(=O)[C@H](c1ccccc1Cl)N1CCc2sccc2C1 [clopidogrel]
elevation of oral exposure of repaglinide upon coadministration [2]: 5 fold

O=c1c(O)c(-c2ccc(O)c(O)c2)oc2cc(O)ccc12 [fisetin]
IC50 (CYP2C8 [3]): 10.8 µM

Cc1ccc(C)c(OCCCC(C)(C)C(=O)O)c1 [gemfibrozil]
Ki (CYP2C8 [4]): 10.2 µM | Cmax ([5]; 600 mg twice daily, healthy human volunteers): 16850 ng/mL | increase in oral exposure of cerivastatin ([2]; human subjects): about 5.6 fold | enhancement of AUC of repaglinide ([2]; humans): 8.3 fold | enhancement of Cmax of repaglinide ([2]; humans): 2.4 fold | enhancement of bioavailability of sitagliptin ([2]; humans): 54%

O=c1c(O)c(-c2ccc(O)cc2O)oc2cc(O)cc(O)c12 [morin]
IC50 (CYP2C8 [3]): 17.3 µM

O=c1c(O)c(-c2cc(O)c(O)c(O)c2)oc2cc(O)cc(O)c12 [myricetin, Myricetin]
percent of amodiaquine remaining [6]: increased with the increasing concentration of myricetin | plasma exposure of N-desethylamodiaquine ([1]; rats, myricetin coadministration vs amodiaquine without myricetin): Substantial elevation | IC50 (CYP3A4; read-out: IC50 for CYP3A4): 10.7 µM and 20.3 µM | IC50 (CYP2D6): 30.2 µM | Cmax in plasma ([5]; humans, oral cranberry juice containing myricetin): 21600 ± 5700 ng/mL | Ki (CYP2C8 [7]): 1.7 ± 0.11 µM | IC50 (CYP2C8 [8]): 2.4 ± 0.05 µM | α-value (CYP2C8 [8]; HLM, mixed inhibition model): 3.55

O=c1c(O)c(-c2ccc(O)c(O)c2)oc2cc(O)cc(O)c12 [quercetin]
Ki (CYP3A4): […] | Cmax ([5]; humans, 100 mg dose): 2310 ng/mL | alteration in the pharmacokinetics of midazolam ([2]; single-dose treatment, humans): […] | enhancement of oral exposure of repaglinide [9]: 1.8 fold

Oc1ccc(/C=C/c2cc(O)cc(O)c2)cc1 [trans-resveratrol]
Ki (CYP3A4): […] | Cmax ([5]; humans, 2000 mg dose): 1274 ng/mL | decrease of clearance of carbamazepine ([2]; clinical study): 33% | enhancement of AUC of carbamazepine ([2]; clinical study): 1.4 fold

COc1cc(Cc2cnc(N)nc2N)cc(OC)c1OC [trimethoprim]
elevation of oral exposure of repaglinide upon coadministration [2]: 2 fold

B1: CYP2C8 (Homo sapiens) (protein)
chain: T1 sequence (P10632 1-490)
Km [10]: 4.7 ± 0.12 µM | Vmax [10]: 3996 ± 46 pmol/min/mg protein
